The results in this text go back to patent US20020086862A1, “Novel compounds” (AstraZeneca AB, priority 1998, published 2002).

By melting point is commonly meant the temperature of the solid-liquid transition.

The compound `COC(=O)c1ccccc1-c1nn(Cc2ccccc2)c(=S)[nH]1` [Example 2, 2-[1,2-Dihydro-1-(phenylmethyl)-5-thioxo-3H-1,2,4-triazol-3-yl]benzoic acid, methyl ester] gave a melting point of 129 to 130 °C.

In turn, `S=c1[nH]c(-c2ccc(-c3ccccc3)cc2)nn1Cc1ccccc1` [Example 15, 1,2-Dihydro-2-(phenylmethyl)-5-(4-phenylphenyl)-3H-1,2,4-triazole-3-thione] gave a melting point of 249 to 250 °C.

In the case of `Fc1ccccc1-c1nn(Cc2ccccc2)c(=S)[nH]1` [Example 17, 5-(2-Fluorophenyl)-1,2-dihydro-2-(phenylmethyl)-3H-1,2,4-triazole-3-thione], the melting point is 180 to 183 °C.

In turn, `S=c1[nH]c(-c2ccc(Cl)cc2Cl)nn1Cc1cccc(Cl)c1` [Example 32, 2-[(3-Chlorophenyl)methyl]-5-(2,4-dichlorophenyl)-1,2-dihydro-3H-1,2,4-triazole-3-thione] registered a melting point of 190 to 191 °C.

On to `S=c1[nH]c(-c2cc(Cl)cc(Cl)c2)nn1Cc1ccccc1` [Example 29, 5-(3,5-Dichlorophenyl)-1,2-dihydro-2-(phenylmethyl)-3H-1,2,4-triazole-3-thione], for which the melting point fell in the range of 205 to 212 °C.

In turn, `COc1cccc(Cn2nc(-c3ccc(Cl)cc3Cl)[nH]c2=S)c1` [Example 33, 5-(2,4-Dichlorophenyl)-1,2-dihydro-2-[(3-methoxyphenyl)methyl]-3H-1,2,4-triazole-3-thione] displayed a melting point of 173 to 174 °C.

In the case of `Cc1cccc(Cn2nc(-c3ccc(Cl)cc3Cl)[nH]c2=S)c1` [Example 43, 5-(2,4-Dichlorophenyl)-1,2-dihydro-2-[(3-methylphenyl)methyl]-3H-1,2,4-triazole-3-thione], the melting point was 177 to 178 °C.

`S=c1[nH]c(-c2ccc(Cl)cc2Cl)nn1Cc1ccc(Cl)cc1` [Example 45, 2-[(4-Chlorophenyl)methyl]-5-(2,4-dichlorophenyl)-1,2-dihydro-3H-1,2,4-triazole-3-thione] showed a melting point of 205 to 206 °C.

Regarding `S=c1[nH]c(-c2ccccc2Cl)nn1Cc1ccccc1I` [Example 59, 5-(2-Chlorophenyl)-1,2-dihydro-2-[(2-iodophenyl)methyl]-3H-1,2,4-triazole-3-thione], the melting point lay within 189 to 190 °C.

For the compound `COc1ccc(-c2nn(Cc3cccc(Cl)c3)c(=S)[nH]2)cc1` [Example 48, 2-[(3-Chlorophenyl)methyl]-5-(4-methoxyphenyl)-1,2-dihydro-3H-1,2,4-triazole-3-thione], the melting point was 231 to 233 °C.

In turn, `Cc1ccc(-c2nn(Cc3cccc(Cl)c3)c(=S)[nH]2)cc1` [Example 47, 2-[(3-Chlorophenyl)methyl]-5-(4-methylphenyl)-1,2-dihydro-3H-1,2,4-triazole-3-thione] returned a melting point of 207 to 208 °C.

The compound `S=c1[nH]c(-c2ccc(Cl)s2)nn1Cc1ccccc1` [Example 4, 5-(5-Chloro-2-thienyl)-1,2-dihydro-2-(phenylmethyl)-3H-1,2,4-triazole-3-thione] returned a melting point of 79 to 80 °C.

In the case of `S=c1[nH]c(-c2ccc(Cl)c(Cl)c2)nn1Cc1ccccc1` [Example 25, 5-(3,4-Dichlorophenyl)-1,2-dihydro-2-(phenylmethyl)-3H-1,2,4-triazole-3-thione], the melting point was in the range of 227 to 228 °C.

Compound `COc1ccc(Cn2nc(-c3ccccc3Cl)[nH]c2=S)cc1` [Example 54] showed a melting point of 153 to 154 °C.

In turn, `O=[N+]([O-])c1ccc(Cn2nc(-c3ccccc3Cl)[nH]c2=S)cc1` [Example 65, 5-(2-Chlorophenyl)-1,2-dihydro-2-[(4-nitrophenyl)methyl]-3H-1,2,4-triazoe-3-thione] returned a melting point of 182 to 183 °C.

Take `FC(F)(F)c1ccc(-c2nn(Cc3ccccc3)c(=S)[nH]2)cc1` [Example 21, 1,2-Dihydro-2-(phenylmethyl)-5-[4-(trifluoromethyl)phenyl]-3H-1,2,4-triazole-3-thione]: the melting point was in the range of 201 to 203 °C.

Turning to `S=c1[nH]c(-c2ccccc2)nn1Cc1cccc(Cl)c1` [Example 57, 2-[(3-Chlorophenyl)methyl]-5-phenyl-1,2-dihydro-3H-1,2,4-triazole-3-thione], the melting point came to 213 °C.

`S=c1[nH]c(-c2ccco2)nn1Cc1ccccc1` [Example 11, 5-(2-Furanyl)-1,2-dihydro-2-(phenylmethyl)-3H-1,2,4-triazole-3-thione]: the melting point fell in the range of 212 to 213 °C.

Take `Fc1ccc(-c2nn(Cc3ccccc3)c(=S)[nH]2)c(Cl)c1` [Example 22, 5-(2-Chloro-4-fluorophenyl)-1,2-dihydro-2-(phenylmethyl)-3H-1,2,4-triazole-3-thione]: the melting point fell in the range of 135 to 136 °C.
